Test results published in article PMC4659538, “Human GAPDH Is a Target of Aspirin’s Primary Metabolite Salicylic Acid and Its Derivatives” (PLoS ONE, 2015).

Assays:
[1] = biological target: T1, human Glyceraldehyde 3-Phosphate Dehydrogenase (HsGAPDH) (Homo sapiens, UniProt P04406); experiment: UV photoaffinity crosslinking ([…]) with anti-SA immunoblot; format: binding
T1 construct: gene GAPDH; N-terminally His-tagged human GAPDH, expressed in E. coli

[2] = biological target: T1, human Glyceraldehyde 3-Phosphate Dehydrogenase (HsGAPDH); experiment: SPR competition with immobilized 3AESA; competition of 4AzSA photoaffinity crosslinking; format: binding

T1 sequence (P04406 whole entry): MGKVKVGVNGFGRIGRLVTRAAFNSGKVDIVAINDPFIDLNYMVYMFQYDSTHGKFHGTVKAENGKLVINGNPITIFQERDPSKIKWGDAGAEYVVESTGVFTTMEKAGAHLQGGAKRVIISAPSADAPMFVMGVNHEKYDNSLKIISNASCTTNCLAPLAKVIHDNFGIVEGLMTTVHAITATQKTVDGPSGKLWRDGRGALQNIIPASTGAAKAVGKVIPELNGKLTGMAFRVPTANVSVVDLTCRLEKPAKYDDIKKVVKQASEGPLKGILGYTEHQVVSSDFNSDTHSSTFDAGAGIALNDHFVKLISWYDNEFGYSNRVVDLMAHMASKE

Compound | UV photoaffinity crosslinking (0.05 mM) with anti-SA immunoblot [1] | SPR competition with immobilized 3AESA; competition of 4AzSA photoaffinity cross [2]
[N-]=[N+]=Nc1ccc(C(=O)O)c(O)c1 [4AzSA, 4-azido salicylic acid] | Recombinant HsGAPDH crosslinked with 4AzSA, and this crosslinking was suppressed in the presence of increasing levels of SA. | 
O=C(O)c1ccccc1O [SA, Salicylic acid] |  | suppression of this interaction required millimolar concentrations of SA (Fig 2B)
